In patent US12503717B2, “Systems and methods for modeling disease and assessing adverse side effects of therapeutics therefor” (NOVOHEART INTERNATIONAL LIMITED, priority 2016, dated 2025):
Marks after values point to notes of the source that are not given here.

What was measured:
[1] = tested on: hvCAS (human ventricular cardiac anisotropic sheet of HES2 hESC-derived ventricular cardiomyocytes); assay type: cell-based
Experimental: hvCAS preparations were loaded with di-8-ANEPPS (10 μM; D-3167; Molecular Probes)/[…] (0.04%; P-3000MP; Life Technologies) for 1 hour at 37° C. in DMEM-F12, followed by incubation at room temperature (RT) for 15 minutes in Blebbistatin (50 μM, B0560; Sigma-Aldrich) in Tyrode's solution. Tyrode's solution consists of 140 mM NaCl, 5 mM KCl, 1 mM MgCl2, 1 mM CaCl2, 10 mM D-glucose, and 10 mM HEPES at pH 7.4 to minimize potential interference of optical mapping signals by motion artifacts. The dye-loaded hvCAS preparations were bathed in Tyrode's solution which was maintained at 35-37° C. using a culture dish incubator (Warners Instruments). High-resolution optical mapping of AP and conduction properties was performed using a MiCam Ultima (SciMedia, CA, USA) with a 1× objective and a 1× condensing lens to yield a 10 mm by 10 mm field of view. Fluorescence imaging was performed using a halogen light filtered by a 515±35 nm band-pass excitation filter and a 590 nm high-pass emission filter. Data were collected at a sampling rate of 200 Hz and analyzed using BVAna software (SciMedia). A programmable stimulator (Master8; AMPI, Israel) was enrolled to deliver pacing stimuli (10V, 10-ms pulse duration) via a unipolar point-stimulation electrode (Harvard Apparatus, MA, USA) placed perpendicular to the hvCAS surface.
A point stimulation was applied at the center of an […] preparation following the schematic illustration (FIG. 2E) and steady state pacing (10 ms, 10 V) was first applied from 0.5 Hz through to 3 Hz (i.e., 30 to 180 bpm) with 0.5 Hz increments, unless there was a loss of 1:1 capture using Master-8 (AMPI, Israel). A standard (S1-S2) programmed electrical stimulation (PES) protocol was then introduced to further evaluate arrhythmogenicity, similar to what has been previously described^[15]. A train of eight S1 stimuli was delivered at 1.5 Hz followed by a premature extra stimulus (S2) with S1-S2 interval initiated at 550 ms and consecutively shortened in steps of 50 ms until capture failed.
A set of selection criteria was strictly followed before an hvCAS was employed for subsequent drug testing procedures to ensure fair comparison. In particular, the selection criteria included (1) observation of a consistent propagation signal across the whole field of view, (2) a maximum capture frequency of at least 1.5 Hz and (3) no re-entry at baseline. Drugs were then added at three cumulative doses to cover the therapeutic range and HERG IC50 was determined using a conventional technique known in the art.^[33] All drugs were purchased from Sigma-aldrich (MO, USA). […] Steady-state pacing and PES were repeated, as described above, for each dose unless re-entry occurred before the highest dose was applied. Action potential parameters and conduction properties were subsequently analyzed using Clampfit, with APD90 defined as the time from the peak to 90% repolarization. Data are individually presented as mean±SD and statistically compared using Student's t-test with p<0.05 considered statistically significant.

[2] = cited from earlier work

SMILES | arrhythmic risk compared to the respective vehicle control (FIG. 3H) [1] | Chirality of Re-entry: Anticlock-wise ([1]; human, pH 7.4) | Chirality of Re-entry: Clock-wise ([1]; human, pH 7.4) | Chirality of Re-entry: Figure-of-eight ([1]; human, pH 7.4) | Chirality of Re-entry: Multi-origin ([1]; human, pH 7.4) | Frequency of re-entries (Mean ± SD) ([1]; human, pH 7.4) | No. of Re-entry, 1st dose ([1]; human, pH 7.4) | No. of Re-entry, 2nd dose ([1]; human, pH 7.4) | No. of Re-entry, 3rd dose ([1]; human, pH 7.4) | fold increase in incidence rate or arrhythmic risk normalized to corresponding vehicle control ([1]; human, pH 7.4) | risk of arrhythmia or sudden death during hospitalization ([2]; nested case-control study) | effect on AP at relatively low doses [1] | fold increase in risk compared to the vehicle control (DMSO) ([1]; human, 300 nM, pH 7.4) | reentrant events at relatively low doses ([1]; human, pH 7.4) | serum concentration associated with clinical TdP ([2]; serum) | clinical QT prolongation / TdP liability ([2]; human, in vivo)
CC(=O)Oc1ccccc1C(=O)O [ASP, aspirin] | lower risk |  |  |  |  |  |  |  |  |  |  |  |  |  |  | 
COc1cc(N)c(Cl)cc1C(=O)NC1CCN(CCCOc2ccc(F)cc2)CC1OC (stereo not shown) [CISA, cisapride] | elevated risk | 5 | 3 | 0 | 1 | 1.18 ± 0.40 | 2^[a] | 4^[a] | 3 | 2.7 fold | doubling or tripling |  |  |  |  | 
O=C(NCC1CCCCN1)c1cc(OCC(F)(F)F)ccc1OCC(F)(F)F (stereo not shown) [FLE, flecainide] | elevated risk | 3 | 1 | 1 | 0 | 1.92 ± 0.37 | 4^[a] | 1^[a] | 0 |  |  |  |  |  |  | 
CCN(CC)CCNC(=O)c1ccc(N)cc1 [PROC, procainamide] | elevated risk | 3 | 0 | 0 | 0 | 1.53 ± 0.42 | 1^[a] | 2 | 0 | 2.3 fold |  |  |  |  |  | 
CC(C)(C)c1ccc(C(O)CCCN2CCC(C(O)(c3ccccc3)c3ccccc3)CC2)cc1 (stereo not shown) [TERF, terfenadine] | elevated risk | 3 | 1 | 0 | 0 | 1.04 ± 0.31 | 0 | 0 | 4 |  |  | no apparent effects on AP | 1.2 fold | 0 of 16 | 120 nM | 
Cc1cccc(C)c1NC(=O)C(C)N (stereo not shown) [TOC, tocainide] | lower risk | 0 | 1 | 1 | 0 | 1.34 ± 0.52 | 0 | 1^[a] | 1 | 0.7 fold |  |  |  |  |  | 
COc1ccccc1OCC(O)CN1CCN(CC(=O)Nc2c(C)cccc2C)CC1 (stereo not shown) [ranolazine] |  |  |  |  |  |  |  |  |  |  |  |  |  |  |  | reasonably safe from causing TdP
